# Test results taken from PMC6271731, “Multitarget Molecular Hybrids of Cinnamic Acids” (Molecules, 2014).
# Marks after values point to notes of the source that are not given here.
# Key:
# [1] = Lipophilicity as RM values by RP-TLC; format: physicochemical; conditions: methanol/water 70/30, 24 °C, average of at least five measurements
# Source text: Since lipophilicity is a significant physicochemical property determining distribution, bioavailability, metabolic activity and elimination, we tried to determine experimentally the lipophilicity of the new substances by a RPTLC method as RM values (Table 1) and to compare them with the corresponding theoretically calculated clog p values in n-octanol-buffer. This is considered to be a reliable, fast and convenient method for expressing lipophilicity. Lipophilicity (Table 2), was theoretically calculated as Clog p values in n-octanol-buffer by the CLOGP Programme of Biobyte Corp..
# Reversed phase TLC (RP-TLC) was performed on silica gel plates impregnated with 5% (v/v) liquid paraffin in light petroleum ether. The mobile phase was a methanol/water mixture (70/30, v/v). The plates were developed in closed chromatography tanks saturated with the mobile phase at 24 °C. Spots were detected under UV light. RM values were determined from the corresponding Rf values (from five individual measurements) using the equation RM = log [(1/Rf) − 1] (Table 1).
# [2] = tested on: acetic acid-induced writhing; assay: Antinociceptive screen (writhing test); format: in vivo, Wistar rats; conditions: i.p. 30 min before 0.6% acetic acid, writhes counted over 30 min
# Procedure: Anti-inflammatory tests were conducted on Fisher-344 inbred rats of ca. 200 g body weight whereas antinociception and motor and sensory functions after sciatic nerve crash were performed on Wistar rats. Both sexes were used. Females pregnant were excluded. Each group was composed of 6 animals. The animals, which have been bred in our laboratory, were housed under standard conditions and received a diet of commercial food pellets and water ad libitum during the maintenance. Our studies were carried out in accordance with recognised guidelines on animal experimentation.
# […] Controls received the liquid vehicle only. All the in vivo experiments were repeated at least in triplicate and were subjected to statistic analysis using the student’s t-test.
# The writhing reflex was used. The test compounds were administered i.p. 30 min prior to the i.p. administration of 1 mL/100 g body weight of 0.6% acetic acid. […] After 5 min, the number of stretches characterized by repeated contractions of the abdominal musculature accompanied by extension of the hind limbs was counted every 5 min for the next 30 min. […] The % antinociceptive activity (a:a) was calculated as: % a:a = (n − n'/n) × 100 (a: a analgesic activity, n average number of writhes of control group, n' average number in the test group).
# [3] = tested on: sciatic nerve crush; assay: Sciatic Functional Index after sciatic nerve crush; format: in vivo, Wistar rats
# Source text: SFI is the current standard for measuring functional recovery following rat sciatic nerve crush. Its calculation involves the measurement of wide-ranging relationships between feet and toes of the hindlimb of recovering animals. SFI values close to −100 indicate severe damage, while SFI values close to 0 indicate normal function. The treated rats improved their walk and the relationship between feet and toes of the crushed hindlimbs starting from day 14 to day 21.
# (§1) One day prior to the surgery and the behavioral testing, Wistar rats were handled by the investigators and introduced to the testing environment for a brief period of time. Rats were anesthetized with chloral hydrate 4.5% (1 mL/100 g). […] After the exposure, the nerve was crushed once for 30 s at standardized force. The muscle was reapproximated and the skin incision was closed using 6 to 0 sutures. The examination of the loss of sensory and motor function in the operated limb established the crush completeness. Digits in the operated limb were pinched with a blunt forceps. Absence of foot withdrawal and vocalization was recorded as loss of sensory and motor function. Animals were placed under a heating lamp until they recovered from the anesthesia and they returned to their home cages.
# (§2) The tested solutions were freshly prepared on surgery day (day 0).
# […] The day of the surgery is considered as day 0 [36, 37, 38].
# In the present study, the plantar surfaces of the hindlimbs of the rats were impregnated with ink and then the animals were allowed to walk on a paper along a corridor, leaving footprints during walking.
# A wooden corridor (1 m × 8 cm) with raised sidewalls was used. Two and a half white paper strips (40 × 7.5 cm) were placed along the corridor and were fixed with adhesive tape closely together and at the base and the sidewalls of the corridor. Each rat was trained to walk steadily along the corridor without stops until it made three at least successful efforts of continuous walking. The footprints were allowed to dry and were then converted into digital images using a computer and a high resolution scanner. The image processing was done by using the ImageJ. This is an open-source image analysis software created in 1997 by Rayne Rasband (National Institute of Health), widely used in medical applications, especially neuroscience, for measuring distances and surface and plotting the data. The footprints were analyzed as described by Bain et al. in measurements were included: • (i) print length (PL): distance from the heel to the third toe, • (ii) toe spread (TS) distance from the first to the fifth toe on both sides and • (iii) intermediate toe spread (ITS) the distance between the middle of the second and fourth toe
# All measurements were taken both from the experimental (EPL, ETS, EIT) and the normal (NPL, NTS, NIT) side. The formula used to calculate SFI was the following: SFI = −38.3 (EPL − NPL)/NPL + 109.5 (ETS − NTS)/NTS + 13.3 (EIT − NIT)/NIT − 8.8
# [4] = tested on: sciatic nerve crush; assay: Flat runway test after sciatic nerve crush; format: in vivo, Wistar rats; parameters: key: 0: No movement; 1: Mild movement; 2: Walking with mild deficit; 3: Nearly normal; conditions: crushed animals treated with 2a, day 1 to day 21
# Procedure: The locomotor function recovery was examined through the flat runway test, the inclined plane runway test, the grid walking test and the Sciatic Functional Index (SFI) calculation.
# as §1, §2
# The animals were subjected to a locomotor testing one day before the surgery and on the 1st, 8th, 15th and 22nd day after the sciatic nerve injury. The day of the surgery is considered as day 0 [36, 37, 38].
# Rats were trained to walk on a wooden board (1 m × 15 cm) for 120 s. The hindlimb movement was assessed with the scoring mentioned before.
# [5] = single i.p. dose 0.01 mmol/mL/kg, 8 h after surgery
compound,measurement,setting,value
"CC(=O)Nc1ccc(OC(=O)/C=C/c2cccc(Oc3ccccc3)c2)cc1 [Compound 2a, (E)-4-Acetamidophenyl 3-(3-phenoxyphenyl)acrylate]",RM (±S.D.),[1],0.276 ± 0.006
same,% ANA (in vivo analgesic-antinociceptive activity),[2]; 0.01 mmol/0.1 kg,91 ** %
same,inhibition in vivo at 0.01 mmol/0.1 kg,"[2]; Rattus norvegicus, ip, 0.5 h, read-out: % ANA (in vivo analgesic-antinociceptive activity)",91%
same,"SFI, Day before Crash",[3]; baseline before surgery and dosing,−10.26
same,"SFI, Day-1",[3]; [5],−93.3
same,"SFI, Day-7",[3]; [5],−93.3
same,"SFI, Day-14",[3]; [5],−35.45
same,"SFI, Day-21",[3]; [5],−20.06
same,Flat runway score (movement in hindlimb),[4],3
